Test results published in PubChem BioAssay (NCI).
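Following 48 hours of exposure in 96-well plates, responses at five concentrations were used to interpolate endpoints linearly. TGI marks complete inhibition of growth.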

Assays:
Assay in all cases: DTP human tumour cell line panel, 48 h
[1] = test system: 786-0 renal
[2] = test system: A498 renal
[3] = test system: A549 NSCLC
[4] = test system: ACHN renal
[5] = test system: BT-549 breast
[6] = test system: CAKI-1 renal
[7] = test system: CCRF-CEM leukemia
[8] = test system: COLO 205 colon
[9] = test system: DU-145 prostate
[10] = test system: EKVX NSCLC
[11] = test system: HCT-116 colon
[12] = test system: HCT-15 colon
[13] = test system: HOP-62 NSCLC
[14] = test system: HOP-92 NSCLC
[15] = test system: HS 578T breast
[16] = test system: HT29 colon
[17] = test system: IGROV1 ovarian
[18] = test system: K-562 leukemia
[19] = test system: KM12 colon
[20] = test system: LOX IMVI melanoma
[21] = test system: M14 melanoma
[22] = test system: MALME-3M melanoma
[23] = test system: MCF7 breast
[24] = test system: MDA-MB-231 breast
[25] = test system: MDA-MB-435
[26] = test system: MDA-N
[27] = test system: MOLT-4 leukemia
[28] = test system: NCI-H23 lung
[29] = test system: NCI-H460 lung
[30] = test system: NCI-H522 lung
[31] = test system: NCI/ADR-RES ovarian
[32] = test system: OVCAR-3 ovarian
[33] = test system: OVCAR-4 ovarian
[34] = test system: OVCAR-5 ovarian
[35] = test system: OVCAR-8 ovarian
[36] = test system: PC-3 prostate
[37] = test system: RPMI-8226 leukemia
[38] = test system: RXF 393 renal
[39] = test system: SF-268 CNS
[40] = test system: SF-295 CNS
[41] = test system: SF-539 CNS
[42] = test system: SK-MEL-2 melanoma
[43] = test system: SK-MEL-28 melanoma
[44] = test system: SK-MEL-5 melanoma
[45] = test system: SK-OV-3 ovarian
[46] = test system: SN12C renal
[47] = test system: SNB-19 CNS
[48] = test system: SNB-75 CNS
[49] = test system: SR leukemia
[50] = test system: SW-620 colon
[51] = test system: T-47D breast
[52] = test system: TK-10 renal
[53] = test system: U251 CNS
[54] = test system: UACC-62 melanoma
[55] = test system: UO-31 renal
[56] = test system: HL-60(TB) leukemia
[57] = test system: UACC-257 melanoma
[58] = test system: HCC-2998 colon
[59] = test system: NCI-H226 lung

Structure (SMILES): CC(C)(C)c1ccc(O)c(C[N+](C)(C)C)c1
- TGI [1]: > 100 µM
- TGI [2]: > 100 µM
- TGI [3]: > 100 µM
- TGI [4]: > 100 µM
- TGI [5]: > 100 µM
- TGI [6]: > 100 µM
- TGI [7]: > 100 µM
- TGI [8]: > 100 µM
- TGI [9]: > 100 µM
- TGI [10]: > 100 µM
- TGI [11]: > 100 µM
- TGI [12]: > 100 µM
- TGI [13]: > 100 µM
- TGI [14]: > 100 µM
- TGI [15]: > 100 µM
- TGI [16]: > 100 µM
- TGI [17]: > 100 µM
- TGI [18]: > 100 µM
- TGI [19]: > 100 µM
- TGI [20]: > 100 µM
- TGI [21]: > 100 µM
- TGI [22]: > 100 µM
- TGI [23]: > 100 µM
- TGI [24]: > 100 µM
- TGI [25]: > 100 µM
- TGI [26]: > 100 µM
- TGI [27]: > 100 µM
- TGI [28]: > 100 µM
- TGI [29]: > 100 µM
- TGI [30]: > 100 µM
- TGI [31]: > 100 µM
- TGI [32]: > 100 µM
- TGI [33]: > 100 µM
- TGI [34]: > 100 µM
- TGI [35]: > 100 µM
- TGI [36]: > 100 µM
- TGI [37]: > 100 µM
- TGI [38]: > 100 µM
- TGI [39]: > 100 µM
- TGI [40]: > 100 µM
- TGI [41]: > 100 µM
- TGI [42]: > 100 µM
- TGI [43]: > 100 µM
- TGI [44]: > 100 µM
- TGI [45]: > 100 µM
- TGI [46]: > 100 µM
- TGI [47]: > 100 µM
- TGI [48]: > 100 µM
- TGI [49]: > 100 µM
- TGI [50]: > 100 µM
- TGI [51]: > 100 µM
- TGI [52]: > 100 µM
- TGI [53]: > 100 µM
- TGI [54]: > 100 µM
- TGI [55]: > 100 µM

Structure (SMILES): CC(=O)Oc1ccc2c(c1OC(C)=O)CCC1C2=CC[C@]2(C)C(=O)CCC12 (some centres not stated)
- TGI [3]: 33.7 µM
- TGI [4]: 24.3 µM
- TGI [5]: 30.7 µM
- TGI [6]: 19 µM
- TGI [7]: 12.9 µM
- TGI [8]: 27.7 µM
- TGI [9]: 30.1 µM
- TGI [10]: 30.1 µM
- TGI [11]: 18.5 µM
- TGI [12]: 23.5 µM
- TGI [56]: 27.5 µM
- TGI [13]: 53.7 µM
- TGI [14]: 22.4 µM
- TGI [15]: 62.5 µM
- TGI [16]: 32.9 µM
- TGI [17]: 18.8 µM
- TGI [18]: 39.5 µM
- TGI [19]: 33.3 µM
- TGI [21]: 26.1 µM
- TGI [22]: 28.6 µM
- TGI [23]: 31.2 µM
- TGI [24]: 28.3 µM
- TGI [25]: 18.2 µM
- TGI [26]: 33.4 µM
- TGI [27]: 19.4 µM
- TGI [28]: 46.9 µM
- TGI [29]: 40.3 µM
- TGI [30]: 5.01 µM
- TGI [31]: > 100 µM
- TGI [32]: 6.2 µM
- TGI [33]: 15.9 µM
- TGI [34]: 30.3 µM
- TGI [35]: 27.7 µM
- TGI [36]: 17.3 µM
- TGI [37]: 8.41 µM
- TGI [39]: 27.9 µM
- TGI [40]: 29.7 µM
- TGI [41]: 29.1 µM
- TGI [42]: 29.5 µM
- TGI [43]: 21.3 µM
- TGI [44]: 1.55 µM
- TGI [45]: 87.4 µM
- TGI [46]: 28.1 µM
- TGI [47]: 32.8 µM
- TGI [49]: 32.9 µM
- TGI [50]: 14.5 µM
- TGI [51]: 37.6 µM
- TGI [52]: 27.7 µM
- TGI [57]: 68.8 µM
- TGI [54]: 25.5 µM
- TGI [55]: 21.7 µM

Structure (SMILES): CN1C(NN)=NS(=O)(=O)c2ccccc21
- TGI [1]: > 100 µM
- TGI [2]: > 100 µM
- TGI [3]: > 100 µM
- TGI [4]: > 100 µM
- TGI [5]: > 100 µM
- TGI [6]: > 100 µM
- TGI [7]: > 100 µM
- TGI [8]: > 100 µM
- TGI [9]: > 100 µM
- TGI [10]: > 100 µM
- TGI [58]: > 100 µM
- TGI [11]: > 100 µM
- TGI [12]: > 100 µM
- TGI [56]: > 100 µM
- TGI [13]: > 100 µM
- TGI [14]: > 100 µM
- TGI [15]: > 100 µM
- TGI [16]: > 100 µM
- TGI [17]: > 100 µM
- TGI [18]: > 100 µM
- TGI [19]: > 100 µM
- TGI [20]: > 100 µM
- TGI [21]: > 100 µM
- TGI [23]: > 100 µM
- TGI [24]: > 100 µM
- TGI [25]: > 100 µM
- TGI [26]: > 100 µM
- TGI [27]: > 100 µM
- TGI [59]: > 100 µM
- TGI [28]: > 100 µM
- TGI [29]: > 100 µM
- TGI [30]: > 100 µM
- TGI [31]: > 100 µM
- TGI [32]: > 100 µM
- TGI [33]: > 100 µM
- TGI [34]: > 100 µM
- TGI [35]: > 100 µM
- TGI [36]: > 100 µM
- TGI [38]: > 100 µM
- TGI [39]: > 100 µM
- TGI [40]: > 100 µM
- TGI [41]: > 100 µM
- TGI [42]: > 100 µM
- TGI [43]: > 100 µM
- TGI [44]: > 100 µM
- TGI [45]: > 100 µM
- TGI [46]: > 100 µM
- TGI [47]: > 100 µM
- TGI [49]: > 100 µM
- TGI [50]: > 100 µM
- TGI [51]: > 100 µM
- TGI [52]: > 100 µM
- TGI [53]: > 100 µM
- TGI [57]: > 100 µM
- TGI [54]: > 100 µM
- TGI [55]: > 100 µM
